Experiments:
Format in all cases: in vivo
Conditions in all cases: 312 h, rate 250 g/ha, evaluated after 13 days, 100=total damage to plant, 0=no damage to plant
Avena fatua (AVEFA) [1] = assay: Post-emergence herbicidal activity, glasshouse pot test
Description: (§1) Seeds of a variety of test species were sown in standard soil in pots. After cultivation for one day (pre-emergence) or after 8 days cultivation (post-emergence) under controlled conditions in a glasshouse (at 24/16° C., day/night; 14 hours light; 65% humidity), the plants were sprayed with an aqueous spray solution derived from the formulation of the technical active ingredient in acetone/water (50:50) solution containing 0.5% Tween 20 (polyoxyethelyene sorbitan monolaurate, CAS RN 9005-64-5). The test plants were then grown in a glasshouse under controlled conditions in a glasshouse (at 24/16° C., day/night; 14 hours light; 65% humidity) and watered twice daily. After 13 days for pre and post-emergence, the test was evaluated (100=total damage to plant; 0=no damage to plant). Test Plants: Lolium perenne (LOLPE), Alopecurus myosuroides (ALOMY), Echinochloa crus-galli (ECHCG), and Avena fatua (AVEFA). Post-Emergence Activity

Lolium perenne (LOLPE) [2] = assay: as above
Description: as §1

[3] = test system: Echinochloa crus-galli (ECHCG); assay: as above
Description: as §1

[4] = test system: Alopecurus myosuroides (ALOMY); assay: as above
Description: as §1

Avena fatua (AVEFA) [5] = assay: Pre-emergence herbicidal activity, glasshouse pot test
Description: as §1, with “Pre-Emergence” for “Post-Emergence”

Lolium perenne (LOLPE) [6] = assay: as above
Description: as §1, with “Pre-Emergence” for “Post-Emergence”

[7] = test system: Echinochloa crus-galli (ECHCG); assay: as above
Description: as §1, with “Pre-Emergence” for “Post-Emergence”

[8] = test system: Alopecurus myosuroides (ALOMY); assay: as above
Description: as §1, with “Pre-Emergence” for “Post-Emergence”

SMILES | pest or weed control at 250 g/ha (Avena fatua (AVEFA) [1]) [%] | pest or weed control at 250 g/ha (Lolium perenne (LOLPE) [2]) [%] | pest or weed control at 250 g/ha [3] [%] | pest or weed control at 250 g/ha [4] [%] | pest or weed control at 250 g/ha (Avena fatua (AVEFA) [5]) [%] | pest or weed control at 250 g/ha (Lolium perenne (LOLPE) [6]) [%] | pest or weed control at 250 g/ha [7] [%] | pest or weed control at 250 g/ha [8] [%]
CCc1ccc(Oc2ccc(F)cc2)cc1C1=C(O)[C@H]2[C@H]3CC[C@H](C3)[C@H]2C1=O [Compound A-23] | 0 | 20 | 60 | 50 | 0 | 30 | 80 | 0
CCc1ccc(Oc2cnc3cc(Cl)ccc3n2)cc1C1=C(O)[C@H]2[C@@H](C1=O)[C@@H]1CC[C@H]2O1 [Compound A-51] | 90 | 100 | 90 | 100 | 90 | 100 | 90 | 100
CCc1ccc(Oc2cnc3cc(Cl)ccc3n2)cc1C1=C(O)C2C(C1=O)[C@H]1CC[C@@H]2CC1 (some centres unmarked) [Compound A-13, 2-[5-(6-chloroquinoxalin-2-yloxy)-2-ethylphenyl]hexahydro-4,7-ethanoindene-1,3-dione] | 100 | 90 | 100 | 90 | 20 | 60 | 80 | 50
CCc1ccc(Oc2ccc(Cl)c(F)c2)cc1C1=C(O)CCC1=O [Compound A-41] | 10 | 20 | 70 | 0 | 0 | 0 | 30 | 0
CCc1ccc(Oc2nc3ccc(C(F)(F)F)cc3s2)cc1C1=C(O)C2C(C1=O)[C@H]1CC[C@@H]2CC1 (some centres unmarked) [Compound A-108] | 90 | 70 | 100 | 90 | 10 | 50 | 80 | 30
O=C1CCC(O)=C1c1cc(Oc2ccc(Cl)cc2)ccc1C1CC1 [Compound A-54, 2-[5-(4-chlorophenoxy)-2-cyclopropylphenyl]cyclopentane-1,3-dione] | 10 | 0 | 80 | 0 | 0 | 0 | 0 | 0
CCc1ccc(Oc2ccc(Br)cc2)cc1C1=C(O)[C@H]2[C@H]3CC[C@H](C3)[C@H]2C1=O [Compound A-22] | 80 | 40 | 100 | 50 | 30 | 80 | 90 | 40
CCc1ccc(Oc2ccccc2Cl)cc1C1=C(O)[C@H]2[C@@H](C1=O)[C@@H]1CC[C@H]2O1 [Compound A-8] | 20 | 20 | 70 | 20 | 0 | 40 | 40 | 0
CCc1ccc(Oc2nc3ccccc3s2)cc1C1=C(O)C2C(C1=O)[C@H]1CC[C@@H]2CC1 (some centres unmarked) [Compound A-16] | 90 | 70 | 100 | 70 | 30 | 70 | 90 | 40
CCc1ccc(Oc2cnc3cc(Cl)ccc3n2)cc1C1=C(O)CCC1=O [Compound A-18] | 90 | 70 | 100 | 90 | 50 | 70 | 80 | 50
CCc1ccc(Oc2ccc(Cl)cc2F)cc1C1=C(O)[C@H]2[C@@H](C1=O)[C@@H]1CC[C@H]2O1 [Compound A-6] | 90 | 90 | 100 | 80 | 90 | 100 | 100 | 100
CCc1ccc(Oc2ccc(C#N)cc2)cc1C1=C(O)C2C(C1=O)[C@H]1CC[C@@H]2CC1 (some centres unmarked) [Compound A-15] | 30 | 30 | 80 | 30 | 0 | 10 | 100 | 30
CCc1ccc(Oc2cnc3ccc(Br)cc3n2)cc1C1=C(O)C2C(C1=O)[C@H]1CC[C@@H]2CC1 (some centres unmarked) [Compound A-93] | 60 | 50 | 100 | 60 | 0 | 60 | 100 | 10
CCc1ccc(Oc2ccc(Cl)c(Cl)c2)cc1C1=C(O)CCC1=O [Compound A-17, 2-[5-(3,4-dichlorophenoxy)-2-ethylphenyl]cyclopentane-1,3-dione] | 10 | 30 | 70 | 10 | 20 | 10 | 30 | 10
CCc1ccc(Oc2ccc3cc(Cl)ccc3n2)cc1C1=C(O)C2C3CCC(CC3)C2C1=O (centres unmarked) [Compound A-53] | 80 | 90 | 90 | 80 | 0 | 80 | 100 | 80
CCc1ccc(Oc2ccc(Cl)c(F)c2)cc1C1=C(O)[C@H]2[C@@H](C1=O)[C@@H]1CC[C@H]2O1 [Compound A-45] | 90 | 90 | 100 | 90 | 90 | 90 | 100 | 90
CCc1ccc(Oc2ccc(Br)cc2F)cc1C1=C(O)CCC1=O [Compound A-42] | 0 | 10 | 70 | 0 | 0 | 0 | 30 | 0
CCc1ccc(Oc2cnc3cc(Cl)ccc3n2)cc1C1=C(O)[C@H]2[C@H]3CC[C@H](C3)[C@H]2C1=O [Compound A-10, meso-(3aS,4S,7R,7aR)-2-[5-(6-chloroquinoxalin-2-yloxy)-2-ethylphenyl]hexahydro-4,7-methanoindene-1,3-dione] | 100 | 90 | 90 | 90 | 20 | 30 | 60 | 40
CCc1ccc(Oc2nc3c(Cl)cc(Cl)cc3s2)cc1C1=C(O)CCC1=O [Compound A-77] | 0 | 30 | 80 | 20 | 0 | 20 | 90 | 20

From patent US8895474B2, “Herbicidally active cyclopentanediones and derivatives thereof, and their use in controlling weeds” (Syngenta Limited, priority 2009, dated 2014)
